# Reference: publication PMC8131842, “Therapeutic Potential of Vasoactive Intestinal Peptide and its Derivative Stearyl-Norleucine-VIP in Inflammation-Induced Osteolysis” (Frontiers in Pharmacology, 2021)
# Assays:
# [1] = system: LPS-stimulated primary murine macrophages (IL1β, IL6 and TNFα expression); assay: Pro-inflammatory cytokine mRNA expression (RT-qPCR) in LPS-stimulated macrophage cultures; type: cell-based, mouse; settings: 10^−6 M, added 1 h before LPS 1 μg/ml, 24 h, bone marrow-derived macrophages
# Procedure: Cell culture. Primary bone marrow-derived macrophages (BMDMs) were isolated from the femora and tibiae of 10-week-old C57BL/6J mice (Envigo, Israel), as previously described ([Hiram-Bab et al., 2015]). Briefly, cells were cultured overnight at 37°C in a humidified atmosphere with 5% CO2 in our “standard medium” consisting of alpha-modified Eagle’s medium (αMEM, Life Science Technology, NY, United States) and 10% fetal bovine serum (FBS, Rhenium, Ltd., Modi’in, Israel). After 24 h, the non-adherent fraction was cultured in 10-cm non-culture-treated dishes containing standard medium and 100 ng/ml macrophage colony stimulating factor (M-CSF) ([Takeshita et al., 2000]). The resulting adherent BMDMs were collected after 3 days for the specific assays described below.
# RNA isolation, and RT-qPCR. Following a 24 h incubation with Ti particles (or LPS/vehicle only/SNV/VIP in addition to Ti particles), macrophages were washed with sterile PBS, and RNA was extracted using Tri-RNA Reagent (Favorgen Biotech Corp, Kaohsiung, Taiwan). The 260/280 absorbance ratio was measured to verify the RNA purity and concentration. cDNA was produced using a high-capacity cDNA reverse transcription kit (Invitrogen, Grand Island, NY, United States), and real-time PCR was performed using Kapa SYBR Fast qPCR (Kapa Biosystems, Wilmington, MA, United States) on a StepOne real-time PCR machine (Applied Biosystems, Grand Island, NY, United States).
# The following primers were used: F-[…] and R-[…] for mouse IL1β; F-[…] and R-[…] for mouse IL6; F-[…] and R-[…] for mouse TNFα; F-CCGTAACTGCACTGAAGA-AG and R-[…] for VPAC-1; F-CAGCAGACCAGGAAACAT-AA and R-GCCACACGCATCTATGAA for VPAC-2 and F-[…] and R-[…] for Gapdh. The reaction was subjected to 40 cycles of amplification using the following program: 95°C for 20 s, 60°C for 20 s, and 72°C for 25 s. The relative mRNA expression levels of the selected genes were normalized to the level of Gapdh.
# IL1β, IL6 and TNFα are the main mediators of Ti particle-mediated inflammation and osteolysis ([Eger et al., 2017]; [Eger et al., 2018]). […]
# rats [2] = assay: Study 001–2 acute intravenous toxicity in rats; type: in vivo, rat; settings: for Necrotic reaction at the site of injection: vehicle group 2: 55%
# Procedure: (§1) Toxicology. We performed toxicology studies for SNV that consisted of acute subcutaneous, intravenous and oral toxicity in rats, acute dermal toxicity in rabbits, skin sensitization using adjuvant and patch test in guinea pigs, and single and repeated (for 13 weeks) dose toxicity studies in rats. The latter was a 90-days repeated dose toxicity study, consisting of SNV once a day at three different doses to the penis and vagina of male and female rats, respectively. The compound was tested for the treatment of erectile dysfunction. The active dose (7 µg SNV) was chosen as the lowest dose for the study. The highest dosage group in the repeated dose toxicity study received 3,500 µg ([Gozes et al., 1994]). For study 001 (parts 1 through 3), the 1× dose consisted of 0.5 mg SNV dissolved in 7.1 ml vehicle (3.55 ml 10% Sefsol [glycerin monocaprylate] + 3.55 ml isopropanol) and 100µl/animal were administered; the 1000X dose consisted of 91 mg SNV dissolved in 1.3 ml vehicle (0.65 ml 10% Sefsol +0.65 ml isopropanol) and 100µl/animal were administered. For studies 002 through 004, the indicated doses of SNV (Table 1) were dissolved in 0.25 ml 10% Sefsol +0.25 ml 40% isopropanol (vehicle). The methodology for each of the toxicology studies is detailed in Table 1.
# rats [3] = assay: Study 001–3 acute oral toxicity in rats; type: in vivo, rat
# Procedure: as §1
# albino female rabbits = assay: Study 002 acute dermal toxicity in rabbits; type: in vivo, rabbit; settings: single dermal application, 7 mg/site (1000X)
# Procedure: as §1
# [4] = intravenously administered, 30 min after injection; ref Gozes et al., 1994; cited from earlier work
# Source text: VIP and its derivative SNV have been previously studied for immunomodulation properties ([Abad et al., 2006]; [Goursaud et al., 2015]). Here we show the effect of each peptide on the cytokine profile of macrophages in response to LPS and in the osteolytic response to Ti particles using in vitro and in vivo mouse models. […] Furthermore, loading a single dose of SNV into a degradable memb ...
# [5] = oral, 7 µg/rat and 7 mg/rat groups
substance,measurement,setting,value
"Stearyl–HSDAVFTDNYTRLRKQ-Nle-AVKKYLNSILN-NH2 [SNV, Stearyl-norleucine-VIP, lipophilic VIP derivative with N-terminal stearic acid and norleucine in place of methionine at position 17]",Effect on TNFα expression vs LPS,[1]; n=5,no effect
same,Reduction of IL1β expression levels vs LPS,"[1]; n=5, p < 0.05",35%
same,Change of IL6 expression vs LPS,"[1]; n=5, plus = increase",no effect
same,Mortality,"rats [2]; intravenous, 7 µg/rat (1×, group 3)",7 rats (3 males and 4 females) out of 12 died within 3 h after administration in group 4 (SNV -1000X). One rat died in group 2 within 5–24 h after administration. No mortality occurred in groups 1 and 3
same,Necrotic reaction at the site of injection,"rats [2]; intravenous, 7 µg/rat (group 3)",58%
same,Necrotic reaction at the site of injection,"rats [2]; intravenous, 7 mg/rat (group 4)",100%
same,Reactions: body weight,"rats [2]; intravenous, all groups, initial weight loss recovered during the study","Necrotic reaction was observed at the site of injection in 55% group 2, 58% group 3 and 100% group 4. Most surviving rats displayed normal body weight, and some weight loss observed initially was recovered during the study"
same,"Acute intravenous median lethal dose, male rats","rats [2]; tail vein, S.D. rats, estimated",7 mg/male rat
same,Acute median oral lethal dose,"rats [3]; oral by metal catheter, S.D. rats, 6 males + 6 females per group, 7 mg/rat = maximal practical dose","Under the conditions of this study, the acute median oral lethal dose of SNV was found to be greater the 7 mg/rat, which is the maximal practical dose"
same,Mortality,rats [3]; [5],None
same,Reactions,rats [3]; [5],None
same,"Dermal irritation, conclusion",albino female rabbits,"Under the conditions of this study, single dermal application of the vehicle did not cause irritation. The 1000X dose transient effect was barely perceptible"
same,Mortality,albino female rabbits; N = 4,None
same,Rabbits with slight barely perceptible erythema,"albino female rabbits; N = 4, disappeared within 72 h following application",50%
same,Remaining intact SNV,[4],10%
